We go through two compounds from PMC9598926, “Design and Synthesis of (Z)-5-(Substituted benzylidene)-3-cyclohexyl-2-thioxothiazolidin-4-one Analogues as Anti-Tyrosinase and Antioxidant Compounds: In Vitro and In Silico Insights” (Antioxidants, 2022).

Assay [1] is described as follows: ROS scavenging activity assay (DCFH-DA/esterase, SIN-1). As to conditions: SIN–1 10 µM; 5, 10, 20 µM. How it is done:
2.13. ROS Scavenging Activity Assay
The ROS scavenging activities of analogs 1–8 and Troloxwere determined as previously described by Ali et al. and Lebel and Bondy. Briefly, 2.5 mM DCFH-DA (2’,7’-dichlorodihydrofluorescein diacetate) (Molecular Probes, Eugene, OR, USA) solution was mixed with esterase (1.5 units/mL) in 50 mM phosphate buffer (pH 7.4), held for 30 min at 37 °C, and keep on ice in the dark until required. Tested compounds (10 µL; final concentrations: 5, 10, and 20 µM) dissolved in DMSO and SIN-1 (3-morpholinosydnonimine) (10 µM) and 180 µL of phosphate buffer in the wells of a black 96-well plate for 30 min. The 50 µL of DCFH-DA-esterase mixture (20 µM) was added. Fluorescence intensities of oxidized DCFH (DCF or 2′,7′-dichlorofluorescein) were measured using a microplate reader (Berthold Advances GmbH & Co., Bad Wildbad, Germany) with excitation and emission wavelengths of 485 and 530 nm, respectively. Trolox was used as the reference control.
Since it has been reported that reactive oxygen species (ROS) are concerned in the regulation of melanogenesis, we examined the ROS scavenging activities of analogs 1–8 using DCFH-DA (2′,7′-dichlorodihydrofluorescein diacetate) and esterase. Trolox and SIN–1 (3-morpholinosydnonimine) were used as the positive control and a ROS generator, respectively. Hydrolysis of DCFA-DA by esterase generates DCFH (2′,7′-dichlorodihydrofluorescein), which reacts with ROS generated by SIN–1 to produce the fluorescent compound DCF (2′,7′-dichlorofluorescein). Thus, ROS scavenging activities of analogs were assessed by measuring DCF fluorescence. […] Test samples including Trolox were treated at three different concentrations (5, 10, or 20 µM).

The target in assay [2] is mushroom tyrosinase. Briefly: Mushroom tyrosinase inhibition in the presence of L-dopa. It counts as biochemical. As to conditions: L-dopa as substrate.
Assay [3] is described as follows: ABTS cation radical scavenging activity assay. The following applies: test sample 100 µM, 2 min in the dark. As to the method: 2.12. ABTS Cation Radical Scavenging Activity Assay
The free radical scavenging activities of analogs 1–8 and Trolox were determined using an ABTS radical cation decolorization assay (SEJIN CI Co., Seoul, Korea), as previously described with minor modification. Trolox was used as the positive control. ABTS radicals were produced by adding 10 mL of 7 mM ABTS in distilled water to 10 mL of 2.45 mM aqueous potassium persulfate solution. The mixture was kept in the dark for 12–16 h at RT until the reaction was complete and absorbance had stabilized. The prepared free radical solution was then diluted with methyl alcohol so that the optical density at 734 nm was 0.70 ± 0.02. Test samples (10 µL, final concentration at 100 µM) dissolved in EtOH/DMSO (9:1 v/v) were added to the diluted free radical solution (90 µL) in a 96-well plate. After standing at RT for 2 min in the dark, well absorbances were measured at 734 nm, and ABTS radical scavenging activities were calculated using the following formula:ABTS free radical scavenging activity (%) = (Ac − As) × 100/Ac(2) where Ac indicates the absorbance of the non-treated control, and As indicates the absorbances of test samples. Experiments were conducted independently 3 times.
The ABTS (2,2′-azino-bis(3-ethylbenzothiazoline-6-sulfonic acid)) cation radical scavenging assay is also commonly used to evaluate antioxidant effects. ABTS is converted to the ABTS radical cation by the transfer of one electron to potassium persulfate. Trolox was used as the positive control, and assays were performed at a test sample (analogs 1–8 and Trolox) concentration of 100 µM. The ABTS radical solution obtained by a reaction of ABTS with potassium persulfate was mixed with test samples and left in the dark for 2 min. ABTS radical scavenging abilities were evaluated by measuring absorbances at 734 nm. […] On the other hand, analog 1 with a 4-hydroxyphenyl group, and analogs 7 and 8 with bromo substituents on the β-phenyl ring weakly scavenged the ABTS radical (16.6–24.8% scavenging). […] Furthermore, the results for ABTS and DPPH radical scavenging activities were similar.

Assay [4] deals with mushroom tyrosinase. Briefly: Mushroom tyrosinase activity assay (L-tyrosine as substrate). The following applies: for tyrosinase inhibition relative to kojic acid: fold more than kojic acid; for IC50: mushroom tyrosinase, means ± SEMs of triplicate determinations; for enhancement of tyrosinase inhibitory activity relative to analog 1: versus analog 1. It counts as biochemical. As to the method: 2.2. […] In brief, 20 µL of an aqueous mushroom tyrosinase solution (1000 units/mL) and 170 µL of a substrate mixture containing 345 µM of L-tyrosine and 17.2 mM of sodium phosphate buffer (pH 6.5) were added to wells of a 96-well microplate. […] Amounts of dopachrome produced were assessed by measuring optical densities at 475 nm using a microplate reader (VersaMax®, Molecular Devices, Sunnyvale, CA, USA). […] Experiments were independently conducted three times.

The test system of assay [5] is mushroom tyrosinase. Briefly: Kinetic studies on mushroom tyrosinase inhibition (Lineweaver–Burk and Dixon plots, L-tyrosine). It counts as biochemical. As to conditions: for mode of mushroom tyrosinase inhibition: L-tyrosine as substrate; for Ki: mushroom tyrosinase. How it is done: 2.6. Kinetic Studies on Mushroom Tyrosinase Inhibition by Analogues 2 and 3
Lineweaver–Burk plots of analogues 2 and 3 were used to determine modes of mushroom tyrosinase inhibition in the presence of L-tyrosine as substrate. Briefly, 20 µL of an aqueous mushroom tyrosinase solution (200 units/mL), and 170 µL of an aqueous solution consisting of L-tyrosine at various concentrations (final concentrations: 0, 1, 2, 4, 8, or 16 mM), and sodium phosphate buffer (pH 6.5, final concentration: 14.7 mM) were added to the wells of a 96-well microplate. Subsequently, analogues 2 and 3 at four different concentrations (10 µL; final concentrations 0, 5, 10, or 20 µM in DMSO solution for 2, and concentrations of 0, 1, 2, or 4 µM in DMSO solution for 3) were added to wells. Initial rates of dopachrome formation were determined by measuring changes in absorbance at 475 nm per min (ΔOD475/min) using a microplate reader (VersaMax®, Molecular Devices, Sunnyvale, CA, USA). Maximum velocities (Vmax) were calculated from Lineweaver–Burk plots obtained using six different L-tyrosine concentrations. The modes of mushroom tyrosinase inhibition by the analogs were determined using the locations of plot convergence points.
Lineweaver–Burk double reciprocal plots were used to analyze enzyme’s inhibitory mechanisms. Kinetic studies were conducted using four different concentrations of analogs 2 (0, 5, 10, or 20 μM) and 3 (0, 1, 2, or 4 μM) in the presence of L-tyrosine at five different concentrations (1, 2, 4, 8, or 16 mM).

Broadly, the IC50 is the concentration that inhibits the measured activity by half. For orientation: Vmax means the rate approached at saturating substrate. Usually Ki stands for the equilibrium dissociation constant of an inhibitor or competing ligand from its target. As for `O=C1/C(=C/c2ccc(O)c(O)c2)SC(=S)N1C1CCCCC1` [Analog 2, (Z)-3-Cyclohexyl-5-(3,4-dihydroxybenzylidene)-2-thioxothiazolidin-4-one], in assay [1], the ROS scavenging entry was “significantly and concentration-dependently scavenged ROS”; the “ROS scavenging compared with Trolox” value is reported as “more potently than Trolox”. Besides, in assay [2], the concentration for half-maximal inhibition (IC50) is 39.7 ± 3.43 µM. Moreover, the “ABTS radical scavenging activity” value in assay [3] came to 81.0%. In assay [4], the “tyrosinase inhibition relative to kojic acid” value came to 5 fold, the IC50 was 5.21 ± 0.86 µM and the “enhancement of tyrosinase inhibitory activity relative to analog 1” value is reported as 13 fold. In addition, in assay [5] (Lineweaver–Burk plots), the “mode of mushroom tyrosinase inhibition” value is “competitively”. Moreover, the maximum rate (Vmax) in assay [5] (Lineweaver–Burk plots, L-tyrosine, independent of analog 2 concentration (0, 5, 10, 20 µM)) came out at 0.00343 mM/min. In assay [5] (L-tyrosine), the inhibition constant Ki was determined as 2.22 µM.
For orientation: Km means the substrate concentration at which the rate is half of its maximum. Consider `O=C1/C(=C/c2ccc(O)cc2O)SC(=S)N1C1CCCCC1` [Analog 3, (Z)-3-Cyclohexyl-5-(2,4-dihydroxybenzylidene)-2-thioxothiazolidin-4-one], for which, in assay [1], the ROS scavenging result was “significantly and concentration-dependently scavenged ROS”; the “ROS scavenging compared with Trolox” value is listed as “more potently than Trolox”. Further, the IC50 in assay [2] amounted to 10.6 ± 2.92 µM. In assay [3], the “ABTS radical scavenging activity” value worked out at 72.1%. Besides, in assay [4], the “tyrosinase inhibition relative to kojic acid” value came to 25 fold, the IC50 turned out to be 1.03 ± 0.14 µM and the “enhancement of tyrosinase inhibitory activity relative to analog 1” value amounted to 63 fold. The “mode of mushroom tyrosinase inhibition” value in assay [5] (Lineweaver–Burk plots) is “non-competitive”. Besides, in assay [5] (Lineweaver–Burk plots, L-tyrosine, independent of analog 3 concentration (0, 1, 2, 4 µM)), the Km was found to be 2810 µM. In assay [5] (L-tyrosine), the affinity corresponds to a Ki of 1.27 µM.
